Residue numbers refer to the chain shown, from its start.
Assays:
PC9 cells = assay: cells; settings: Homo sapiens, PC-9, 48 h, read-out: % Viability PC9
GPX4^U46C = target: T1, GPX4^U46C (Homo sapiens, UniProt P36969, U73C); assay: Intact protein MALDI MS analysis; format: binding; settings: 150 μM
T1 construct: made in house; host or cells: E. coli BL21-Gold (DE3)
T1 sequence (P36969 1-170 isoform P36969-2 U46C): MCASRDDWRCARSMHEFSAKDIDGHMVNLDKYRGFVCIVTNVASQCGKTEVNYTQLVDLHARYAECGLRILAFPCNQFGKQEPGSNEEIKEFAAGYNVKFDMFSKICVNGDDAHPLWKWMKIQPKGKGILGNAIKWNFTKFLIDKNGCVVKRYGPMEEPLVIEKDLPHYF

GFP-GPX4^K125R_K127R = target: T2, GFP-GPX4^K125R_K127R (Homo sapiens, UniProt P36969, K152R/K154R); assay: Degradation of GFP-GPX4^K125R_K127R in HT-1080 cells; format: cell-based
T2 construct: expressed in transfected cells

GFP-GPX4^WT = target: T3, GFP-GPX4^WT (Homo sapiens, UniProt P36969); assay: Degradation of GPX4 and GFP-GPX4^WT with MG-132; format: cell-based; settings: 1.0 μM ± MG-132 (10 μM), 18 hours
T3 construct: expressed in transfected cells; host or cells: HT-1080 overexpressing GFP-GPX4^WT

GPX4 = target: T4, GPX4 (Homo sapiens, UniProt P36969); assay: Cellular thermal shift assay (CETSA), GPX4; format: cell-based; design: To prepare the cell lysate containing native GPX4, A-673 cells were cultured; endogenous in cells; host or cells: A-673 cell lysate; settings: 10 μM compound for 1 h
T4 sequence (P36969 1-170 isoform P36969-2): T1 sequence (P36969 1-170 isoform P36969-2 U46C) with C46U

T2 sequence (P36969 28-197 K152R/K154R): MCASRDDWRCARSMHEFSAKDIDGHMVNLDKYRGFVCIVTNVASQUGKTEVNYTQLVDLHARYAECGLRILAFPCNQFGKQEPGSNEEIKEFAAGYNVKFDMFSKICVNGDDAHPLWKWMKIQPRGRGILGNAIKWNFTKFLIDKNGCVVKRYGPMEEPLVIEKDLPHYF
T3 sequence (P36969 28-197): as the sequence (P36969 28-197 K152R/K154R) above, with R125K, R127K counted along it

Row | SMILES | viability at 10 µM (PC9 cells) [%] | covalent binding to GPX4^U46C (mass shift) (GPX4^U46C) | degradation of GFP-GPX4^K125R_K127R (GFP-GPX4^K125R_K127R) | GPX4 degradation with MG-132 (GFP-GPX4^WT) | selectivity in cancer cells compared to PBMCs (PBMCs) | thermal stability of GPX4 (GPX4)
1 | Cn1nc(C(=O)NC(C)(C)COC(=O)CCl)c2ccc(Br)cc21 [QW-314] | 62 | – | – | – | – | –
2 | CC(C)(COC(=O)CCl)NC(=O)c1nn(Cc2cc(Cl)cc(Cl)c2)c2cc(-c3ccc(N4CCOCC4)c(Cl)c3)ccc12 [QW-852] | – | lower potency than RSL3 to covalently bind to GPX4^U46C | but not by QW-852 | effectively blocked by MG-132 | Over 10 fold | stabilizing the protein

Source: US20250248979A1, “NOVEL GPX4 INHIBITORS AND USES THEREOF” (THE TRUSTEES OF COLUMBIA UNIVERSITY IN THE CITY OF NEW YORK, priority 2022, published 2025)
